# System: 885512-296-R-J2-PDC complex spheroid viability
# Test: Anticancer human tumor 885512-296-R-J2-PDC patient-derived breast carcinoma cell line growth inhibition [GQUAD]
# Settings: for IC50: curve of first compound; for viability, T/C: stronger effect = lower value
# Summary of the method: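 Viability of tumor cells grown as complex spheroids with endothelial and stromal cells, exposed to drug combinations. Top concentration at or near clinical Cmax (else 10 microM), diluted in half-log increments.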
# [1] = second compound 0.0316 µM, first compound 0.0316 µM
# [2] = second compound 0.0316 µM, first compound 0.1 µM
# [3] = second compound 0.0316 µM, first compound 0.316 µM
# [4] = second compound 0.0316 µM, first compound 1 µM
# [5] = second compound 0.0316 µM, first compound 3.16 µM
# [6] = second compound 0.0316 µM, first compound 10 µM
# [7] = second compound 0.1 µM, first compound 0.0316 µM
# [8] = second compound 0.1 µM, first compound 0.1 µM
# [9] = second compound 0.1 µM, first compound 0.316 µM
# [10] = second compound 0.1 µM, first compound 1 µM
# [11] = second compound 0.1 µM, first compound 3.16 µM
# [12] = second compound 0.1 µM, first compound 10 µM
# [13] = second compound 0.316 µM, first compound 0.0316 µM
# [14] = second compound 0.316 µM, first compound 0.1 µM
# [15] = second compound 0.316 µM, first compound 0.316 µM
# [16] = second compound 0.316 µM, first compound 1 µM
# [17] = second compound 0.316 µM, first compound 3.16 µM
# [18] = second compound 0.316 µM, first compound 10 µM
# [19] = second compound 1 µM, first compound 0.0316 µM
# [20] = second compound 1 µM, first compound 0.1 µM
# [21] = second compound 1 µM, first compound 0.316 µM
# [22] = second compound 1 µM, first compound 1 µM
# [23] = second compound 1 µM, first compound 3.16 µM
# [24] = second compound 1 µM, first compound 10 µM
# [25] = second compound 3.16 µM, first compound 0.0316 µM
# [26] = second compound 3.16 µM, first compound 0.1 µM
# [27] = second compound 3.16 µM, first compound 0.316 µM
# [28] = second compound 3.16 µM, first compound 1 µM
# [29] = second compound 3.16 µM, first compound 3.16 µM
# [30] = second compound 3.16 µM, first compound 10 µM
# [31] = second compound 10 µM, first compound 0.0316 µM
# [32] = second compound 10 µM, first compound 0.1 µM
# [33] = second compound 10 µM, first compound 0.316 µM
# [34] = second compound 10 µM, first compound 1 µM
# [35] = second compound 10 µM, first compound 3.16 µM
# [36] = second compound 10 µM, first compound 10 µM
# 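Note: spheroids exposed to the compounds for one week.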
# 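Throughout, for viability, T/C: percent of tumor spheroid viability relative to DMSO vehicle control wells.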
structure (smiles),measurement,setting,value
Nc1ccn(C2OC(CO)C(O)C2(F)F)c(=O)n1 (stereo not drawn) + CN(C)c1ccc(Nc2c3ccc(NC(=O)CCN4CCCC4)cc3nc3cc(NC(=O)CCN4CCCC4)ccc23)cc1,IC50,second compound 0.0316 µM,< 31.6 nM
same,IC50,second compound 0.1 µM,< 31.6 nM
same,IC50,second compound 0.316 µM,< 31.6 nM
same,IC50,second compound 1 µM,< 31.6 nM
same,IC50,second compound 3.16 µM,< 31.6 nM
same,IC50,second compound 10 µM,< 31.6 nM
same,"viability, T/C",[1],9.1%
same,"viability, T/C",[2],2.14%
same,"viability, T/C",[3],2.5%
same,"viability, T/C",[4],3.16%
same,"viability, T/C",[5],3.03%
same,"viability, T/C",[6],2.58%
same,"viability, T/C",[7],7.88%
same,"viability, T/C",[8],2.78%
same,"viability, T/C",[9],2.67%
same,"viability, T/C",[10],2.57%
same,"viability, T/C",[11],2.19%
same,"viability, T/C",[12],2.48%
same,"viability, T/C",[13],6.92%
same,"viability, T/C",[14],2.8%
same,"viability, T/C",[15],3.02%
same,"viability, T/C",[16],2.49%
same,"viability, T/C",[17],2.88%
same,"viability, T/C",[18],2.91%
same,"viability, T/C",[19],7.45%
same,"viability, T/C",[20],2.12%
same,"viability, T/C",[21],2.71%
same,"viability, T/C",[22],2.43%
same,"viability, T/C",[23],2.45%
same,"viability, T/C",[24],2.25%
same,"viability, T/C",[25],8.52%
same,"viability, T/C",[26],3.21%
same,"viability, T/C",[27],2.06%
same,"viability, T/C",[28],2.2%
same,"viability, T/C",[29],2.24%
same,"viability, T/C",[30],1.81%
same,"viability, T/C",[31],7.17%
same,"viability, T/C",[32],2.02%
same,"viability, T/C",[33],2.12%
same,"viability, T/C",[34],1.7%
same,"viability, T/C",[35],1.53%
same,"viability, T/C",[36],1.39%
O=c1[nH]cc(F)c(=O)[nH]1 + Cc1[nH]c2ccc(F)cc2c1-c1nc2c3cccnc3c3ncccc3c2[nH]1,IC50,second compound 0.0316 µM,> 10000 nM
same,IC50,second compound 0.1 µM,> 10000 nM
same,IC50,second compound 0.316 µM,> 10000 nM
same,IC50,second compound 1 µM,> 10000 nM
same,IC50,second compound 3.16 µM,< 31.6 nM
same,IC50,second compound 10 µM,< 31.6 nM
same,"viability, T/C",[1],98.3%
same,"viability, T/C",[2],98.3%
same,"viability, T/C",[3],104%
same,"viability, T/C",[4],122%
same,"viability, T/C",[5],69.5%
same,"viability, T/C",[6],59.3%
same,"viability, T/C",[7],102%
same,"viability, T/C",[8],106%
same,"viability, T/C",[9],111%
same,"viability, T/C",[10],104%
same,"viability, T/C",[11],70.1%
same,"viability, T/C",[12],56.2%
same,"viability, T/C",[13],96.9%
same,"viability, T/C",[14],90.1%
same,"viability, T/C",[15],81.7%
same,"viability, T/C",[16],104%
same,"viability, T/C",[17],70.5%
same,"viability, T/C",[18],61.1%
same,"viability, T/C",[19],80.4%
same,"viability, T/C",[20],82.3%
same,"viability, T/C",[21],73.7%
same,"viability, T/C",[22],66.4%
same,"viability, T/C",[23],53.9%
same,"viability, T/C",[24],51.6%
same,"viability, T/C",[25],22%
same,"viability, T/C",[26],18.2%
same,"viability, T/C",[27],14.3%
same,"viability, T/C",[28],16.8%
same,"viability, T/C",[29],11.4%
same,"viability, T/C",[30],9.54%
same,"viability, T/C",[31],1.17%
same,"viability, T/C",[32],2.62%
same,"viability, T/C",[33],1.62%
same,"viability, T/C",[34],1.6%
same,"viability, T/C",[35],1.85%
same,"viability, T/C",[36],1.45%
CCCS(=O)(=O)Nc1ccc(F)c(C(=O)c2c[nH]c3ncc(-c4ccc(Cl)cc4)cc23)c1F + Cc1cnc(CNC(=O)c2c(=O)c3ccc(N4CCCN(C)CC4)nc3n3c2sc2ccccc23)cn1,IC50,second compound 0.0316 µM,> 10000 nM
same,IC50,second compound 0.1 µM,> 10000 nM
same,IC50,second compound 0.316 µM,< 31.6 nM
same,IC50,second compound 1 µM,< 31.6 nM
same,IC50,second compound 3.16 µM,< 31.6 nM
same,IC50,second compound 10 µM,< 31.6 nM
same,"viability, T/C",[1],97.5%
same,"viability, T/C",[2],93.9%
same,"viability, T/C",[3],97.1%
same,"viability, T/C",[4],91.7%
same,"viability, T/C",[5],102%
same,"viability, T/C",[6],58.8%
same,"viability, T/C",[7],65.8%
same,"viability, T/C",[8],61%
same,"viability, T/C",[9],64.3%
same,"viability, T/C",[10],67.6%
same,"viability, T/C",[11],71.2%
same,"viability, T/C",[12],41.5%
same,"viability, T/C",[13],30.3%
same,"viability, T/C",[14],24.9%
same,"viability, T/C",[15],22.9%
same,"viability, T/C",[16],34.2%
same,"viability, T/C",[17],45.6%
same,"viability, T/C",[18],25.4%
same,"viability, T/C",[19],19.2%
same,"viability, T/C",[20],26%
same,"viability, T/C",[21],26.4%
same,"viability, T/C",[22],33.6%
same,"viability, T/C",[23],36%
same,"viability, T/C",[24],22.7%
same,"viability, T/C",[25],20.9%
same,"viability, T/C",[26],29.3%
same,"viability, T/C",[27],26.5%
same,"viability, T/C",[28],25.8%
same,"viability, T/C",[29],24.5%
same,"viability, T/C",[30],0.29%
same,"viability, T/C",[31],0.15%
same,"viability, T/C",[32],0.16%
same,"viability, T/C",[33],0.18%
same,"viability, T/C",[34],0.17%
same,"viability, T/C",[35],0.15%
same,"viability, T/C",[36],0.18%
COc1ccc([C@@H](O)c2cc(-c3ncnc4cc(N5CCOCC5)ccc34)c(F)cc2Cl)nn1 + CN(C)c1ccc(Nc2c3ccc(NC(=O)CCN4CCCC4)cc3nc3cc(NC(=O)CCN4CCCC4)ccc23)cc1,IC50,second compound 0.0316 µM,9540 nM
same,IC50,second compound 0.1 µM,> 10000 nM
same,IC50,second compound 0.316 µM,> 10000 nM
same,IC50,second compound 1 µM,> 10000 nM
same,IC50,second compound 3.16 µM,4100 nM
same,IC50,second compound 10 µM,< 31.6 nM
same,"viability, T/C",[1],105%
same,"viability, T/C",[2],106%
same,"viability, T/C",[3],104%
same,"viability, T/C",[4],103%
same,"viability, T/C",[5],83.8%
same,"viability, T/C",[6],48.5%
same,"viability, T/C",[7],121%
same,"viability, T/C",[8],93.8%
same,"viability, T/C",[9],92.1%
same,"viability, T/C",[10],92.7%
same,"viability, T/C",[11],74.4%
same,"viability, T/C",[12],53.6%
same,"viability, T/C",[13],104%
same,"viability, T/C",[14],98.1%
same,"viability, T/C",[15],91%
same,"viability, T/C",[16],86.6%
same,"viability, T/C",[17],81.6%
same,"viability, T/C",[18],50.1%
same,"viability, T/C",[19],93.4%
same,"viability, T/C",[20],101%
same,"viability, T/C",[21],98.5%
same,"viability, T/C",[22],88.1%
same,"viability, T/C",[23],81.3%
same,"viability, T/C",[24],51.9%
same,"viability, T/C",[25],94.6%
same,"viability, T/C",[26],101%
same,"viability, T/C",[27],86%
same,"viability, T/C",[28],63%
same,"viability, T/C",[29],60.2%
same,"viability, T/C",[30],34.9%
same,"viability, T/C",[31],13.4%
same,"viability, T/C",[32],21.5%
same,"viability, T/C",[33],19.6%
same,"viability, T/C",[34],14.6%
same,"viability, T/C",[35],10.4%
same,"viability, T/C",[36],6.55%

# Reference: PubChem BioAssay AID2060490 (Molecular Pharmacology Branch, DTP, NCI, 2025)
